The source made the active and inactive calls. The rule behind the calls is not given here.
Columns and labels:
[1] = target: T1, Histone-arginine methyltransferase CARM1 (Homo sapiens) (UniProt Q86X55); assay: Inhibition of human PRMT4 using histone H3 as substrate and SAM as cofactor at 10 uM by radiometric HotSpot assay relative to control
T1 sequence (whole entry): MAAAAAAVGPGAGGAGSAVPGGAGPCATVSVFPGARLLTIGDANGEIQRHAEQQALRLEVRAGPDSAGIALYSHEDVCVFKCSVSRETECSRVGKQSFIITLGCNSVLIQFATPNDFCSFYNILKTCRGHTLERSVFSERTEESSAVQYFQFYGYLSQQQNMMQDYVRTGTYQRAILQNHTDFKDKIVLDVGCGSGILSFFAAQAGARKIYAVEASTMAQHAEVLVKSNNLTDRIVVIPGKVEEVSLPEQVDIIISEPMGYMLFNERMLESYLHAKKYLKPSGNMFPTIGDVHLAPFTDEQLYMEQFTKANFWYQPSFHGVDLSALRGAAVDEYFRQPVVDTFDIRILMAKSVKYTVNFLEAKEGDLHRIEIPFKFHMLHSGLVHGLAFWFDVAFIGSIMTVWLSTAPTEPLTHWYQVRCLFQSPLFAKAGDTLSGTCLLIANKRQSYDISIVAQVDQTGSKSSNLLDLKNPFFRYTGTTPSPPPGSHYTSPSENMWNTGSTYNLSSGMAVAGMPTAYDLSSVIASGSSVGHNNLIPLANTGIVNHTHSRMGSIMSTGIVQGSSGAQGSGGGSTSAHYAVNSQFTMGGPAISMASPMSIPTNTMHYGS

[2] = target: Protein arginine N-methyltransferase 8 (Homo sapiens, UniProt Q9NR22); assay: Inhibition of human PRMT8 using Histone H4 as substrate and SAM as cofactor at 10 uM by radiometric HotSpot assay relative to control
Chain of Protein arginine N-methyltransferase 8 (Q9NR22 2-394 limits assumed): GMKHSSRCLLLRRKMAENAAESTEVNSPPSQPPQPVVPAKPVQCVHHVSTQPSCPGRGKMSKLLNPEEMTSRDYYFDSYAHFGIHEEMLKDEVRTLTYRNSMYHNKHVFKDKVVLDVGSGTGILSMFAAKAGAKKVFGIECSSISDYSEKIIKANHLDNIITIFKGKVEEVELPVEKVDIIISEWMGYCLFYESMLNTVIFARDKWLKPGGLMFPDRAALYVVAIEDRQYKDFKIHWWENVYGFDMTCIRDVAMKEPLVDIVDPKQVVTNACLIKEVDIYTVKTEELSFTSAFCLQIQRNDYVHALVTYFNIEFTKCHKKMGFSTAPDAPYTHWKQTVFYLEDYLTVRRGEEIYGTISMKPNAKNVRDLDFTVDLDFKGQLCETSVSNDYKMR

[3] = target: Protein arginine N-methyltransferase 6 (Homo sapiens, UniProt Q96LA8); assay: Inhibition of human PRMT6 using GST-GAR as substrate and SAM as cofactor at 10 uM by radiometric HotSpot assay relative to control
Chain of Protein arginine N-methyltransferase 6 (Q96LA8 whole entry, looked up): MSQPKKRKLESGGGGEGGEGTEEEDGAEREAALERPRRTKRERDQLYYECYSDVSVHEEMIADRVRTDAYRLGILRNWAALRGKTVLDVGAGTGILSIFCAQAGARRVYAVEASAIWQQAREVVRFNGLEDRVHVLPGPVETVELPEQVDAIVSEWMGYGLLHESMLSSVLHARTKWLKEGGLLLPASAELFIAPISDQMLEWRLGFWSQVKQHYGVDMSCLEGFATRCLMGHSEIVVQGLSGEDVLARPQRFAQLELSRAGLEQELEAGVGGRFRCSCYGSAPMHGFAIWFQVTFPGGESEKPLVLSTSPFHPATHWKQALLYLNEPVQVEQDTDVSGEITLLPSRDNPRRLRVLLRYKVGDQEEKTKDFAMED

[4] = target: Protein arginine N-methyltransferase 1 (Homo sapiens, UniProt Q99873); assay: Inhibition of human PRMT1 using H4-21peptide as substrate at 10 uM incubated for 10 mins by fluorescence based analysis relative to control
Chain of Protein arginine N-methyltransferase 1 (Q99873 whole entry, looked up): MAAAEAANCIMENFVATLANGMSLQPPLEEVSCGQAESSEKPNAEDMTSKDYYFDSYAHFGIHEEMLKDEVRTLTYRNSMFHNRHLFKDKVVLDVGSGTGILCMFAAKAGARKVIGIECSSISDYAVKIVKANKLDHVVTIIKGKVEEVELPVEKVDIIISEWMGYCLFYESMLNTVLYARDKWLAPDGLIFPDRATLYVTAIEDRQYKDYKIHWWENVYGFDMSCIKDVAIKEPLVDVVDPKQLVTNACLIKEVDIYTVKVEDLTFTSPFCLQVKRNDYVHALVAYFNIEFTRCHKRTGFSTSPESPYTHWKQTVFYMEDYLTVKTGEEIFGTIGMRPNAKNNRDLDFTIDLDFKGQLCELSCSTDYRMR

[5] = target: Protein arginine N-methyltransferase 3 (Homo sapiens, UniProt O60678); assay: Inhibition of human PRMT3 using H4-21peptide as substrate at 10 uM incubated for 10 mins by fluorescence based analysis relative to control
Chain of Protein arginine N-methyltransferase 3 (O60678 2-531 limits assumed): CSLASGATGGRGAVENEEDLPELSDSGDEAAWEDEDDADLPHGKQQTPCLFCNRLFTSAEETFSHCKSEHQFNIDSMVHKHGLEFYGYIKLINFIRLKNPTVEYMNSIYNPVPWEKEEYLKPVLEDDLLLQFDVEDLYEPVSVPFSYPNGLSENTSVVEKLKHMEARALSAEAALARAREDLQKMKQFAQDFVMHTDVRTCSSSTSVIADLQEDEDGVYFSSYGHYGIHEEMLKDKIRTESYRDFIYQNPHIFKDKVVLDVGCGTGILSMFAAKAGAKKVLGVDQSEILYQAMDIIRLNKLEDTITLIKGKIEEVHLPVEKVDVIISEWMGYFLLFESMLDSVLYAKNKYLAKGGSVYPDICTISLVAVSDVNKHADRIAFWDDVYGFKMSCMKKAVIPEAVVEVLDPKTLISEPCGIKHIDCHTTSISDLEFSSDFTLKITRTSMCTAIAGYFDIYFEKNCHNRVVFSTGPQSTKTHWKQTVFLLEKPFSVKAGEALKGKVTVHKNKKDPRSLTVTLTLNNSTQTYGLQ

| Structure (SMILES) | inhibition [1] | inhibition [2] | inhibition [3] | inhibition [4] | inhibition [5] |
| --- | --- | --- | --- | --- | --- |
| COc1cc2nc(-c3ccc(F)c(O)c3)nc(NCCSC[C@H]3O[C@@H](n4cnc5c(N)ncnc54)[C@H](O)[C@@H]3O)c2cc1OC |  | < 50% |  | inactive | < 30% |
| COc1cc2nc(-c3ccccc3O)nc(NCCSC[C@H]3O[C@@H](n4cnc5c(N)ncnc54)[C@H](O)[C@@H]3O)c2cc1OC |  | < 50% |  | inactive | < 30% |
| Nc1ncnc2c1ncn2[C@@H]1O[C@H](CSCCNC(=O)Nc2ccccc2Br)[C@@H](O)[C@H]1O | 27% | < 30% |  | < 50% | > 50% |
| COc1cc2nc(-c3ccc(N)cc3)nc(NCCSC[C@H]3O[C@@H](n4cnc5c(N)ncnc54)[C@H](O)[C@@H]3O)c2cc1OC |  | < 50% |  | inactive | < 30% |
| COc1cc2nc(-c3ccc(C(F)(F)F)cc3)nc(NCCSC[C@H]3O[C@@H](n4cnc5c(N)ncnc54)[C@H](O)[C@@H]3O)c2cc1OC |  | < 50% |  | inactive | < 30% |
| COc1cc2nc(-c3cccc([N+](=O)[O-])c3)nc(NCCSC[C@H]3O[C@@H](n4cnc5c(N)ncnc54)[C@H](O)[C@@H]3O)c2cc1OC |  | < 50% |  | inactive | < 30% |
| Nc1ncnc2c1ncn2[C@@H]1O[C@H](CSCCNC(=O)NCc2ccccc2Br)[C@@H](O)[C@H]1O | > 90% | < 30% |  | < 50% | 3% |
| Nc1ncnc2c1ncn2[C@@H]1O[C@H](CSCCNC(=O)NCc2ccc3cnccc3c2)[C@@H](O)[C@H]1O | 27% | < 30% |  | < 50% | 3% |
| Nc1ncnc2c1ncn2[C@@H]1O[C@H](CSCCNC(=O)NCc2ccc(-c3cn[nH]c3)cc2)[C@@H](O)[C@H]1O | 27% | < 30% |  | < 50% | 3% |
| CCNC(=O)NCCSC[C@H]1O[C@@H](n2cnc3c(N)ncnc32)[C@H](O)[C@@H]1O | 27% | < 30% |  | < 50% | 3% |
| Nc1ncnc2c1ncn2[C@@H]1O[C@H](CSCCNC(=O)NC2CCCCC2)[C@@H](O)[C@H]1O | 27% | < 30% |  | < 50% | 3% |
| COc1cc2nc(-c3cccc(F)c3)nc(NCCSC[C@H]3O[C@@H](n4cnc5c(N)ncnc54)[C@H](O)[C@@H]3O)c2cc1OC |  | < 50% |  | inactive | < 30% |
| Nc1ncnc2c1ncn2[C@@H]1O[C@H](CSCCNC(=O)NCCc2ccccc2)[C@@H](O)[C@H]1O | 27% | < 30% |  | < 50% | 3% |
| Nc1ncnc2c1ncn2[C@@H]1O[C@H](CSCCNC(=O)NCc2ccc(-c3cc[nH]n3)cc2)[C@@H](O)[C@H]1O | 27% | < 30% |  | < 50% | 3% |
| COc1cc2nc(-c3ccoc3)nc(NCCSC[C@H]3O[C@@H](n4cnc5c(N)ncnc54)[C@H](O)[C@@H]3O)c2cc1OC |  | < 50% |  | inactive | < 30% |
| Nc1ncnc2c1ncn2[C@@H]1O[C@H](CSCCNC(=O)NCCCc2ccccc2)[C@@H](O)[C@H]1O | 27% | < 30% |  | < 50% | 3% |
| COc1cc2nc(-c3cccc(O)c3)nc(NCCSC[C@H]3O[C@@H](n4cnc5c(N)ncnc54)[C@H](O)[C@@H]3O)c2cc1OC |  | < 50% |  | inactive | < 30% |

Second part, the compound after the results:

| inhibition [1] | inhibition [2] | inhibition [3] | inhibition [4] | inhibition [5] | Structure (SMILES) |
| --- | --- | --- | --- | --- | --- |
| > 90% | > 95% | > 90% | > 50% |  | N=C(NCCCSC[C@H]1O[C@@H](n2cnc3c(N)ncnc32)[C@H](O)[C@@H]1O)Nc1cccc(-c2ccc(F)nc2)c1 |
| 27% | < 30% |  | < 50% | 3% | Nc1ncnc2c1ncn2[C@@H]1O[C@H](CSCCCNC(=O)NCc2ccc(F)cc2)[C@@H](O)[C@H]1O |
| > 90% | > 95% | > 90% | > 50% |  | N=C(NCCCSC[C@H]1O[C@@H](n2cnc3c(N)ncnc32)[C@H](O)[C@@H]1O)Nc1cccc(-c2cncnc2)c1 |
| > 90% | > 95% | > 90% | > 50% |  | N=C(NCCCSC[C@H]1O[C@@H](n2cnc3c(N)ncnc32)[C@H](O)[C@@H]1O)Nc1cccc(-c2ccoc2)c1 |
| 27% | < 30% |  | < 50% | 3% | Nc1ncnc2c1ncn2[C@@H]1O[C@H](CSCCNC(=O)Nc2ccc(Cl)cc2)[C@@H](O)[C@H]1O |
| > 90% | > 95% | > 90% | > 50% |  | N=C(NCCSC[C@H]1O[C@@H](n2cnc3c(N)ncnc32)[C@H](O)[C@@H]1O)Nc1cccc(-c2ccc(Cl)cc2)c1 |
| 27% | < 30% |  | < 50% | 3% | Nc1ncnc2c1ncn2[C@@H]1O[C@H](CSCCCNC(=O)NCc2ccccc2)[C@@H](O)[C@H]1O |
| > 90% | > 95% | > 90% | > 50% |  | N=C(NCCCSC[C@H]1O[C@@H](n2cnc3c(N)ncnc32)[C@H](O)[C@@H]1O)Nc1cccc(-c2n[nH]cc2C(F)(F)F)c1 |
| 27% | < 30% |  | < 50% | 3% | Nc1ncnc2c1ncn2[C@@H]1O[C@H](CSCCNC(=O)NCc2ccc(-c3ccccc3O)cc2)[C@@H](O)[C@H]1O |
| > 90% | > 95% | > 90% | > 50% |  | N=C(NCCSC[C@H]1O[C@@H](n2cnc3c(N)ncnc32)[C@H](O)[C@@H]1O)Nc1cccc(I)c1 |
| > 90% | > 95% | > 90% | > 50% |  | N=C(NCCCSC[C@H]1O[C@@H](n2cnc3c(N)ncnc32)[C@H](O)[C@@H]1O)Nc1cccc(-c2ccc(Cl)cc2)c1 |
| > 90% | > 95% | > 90% | > 50% |  | N=C(NCCCSC[C@H]1O[C@@H](n2cnc3c(N)ncnc32)[C@H](O)[C@@H]1O)Nc1cccc(-c2ccc(O)cc2)c1 |
| > 90% | > 95% | > 90% | > 50% |  | N=C(NCCCSC[C@H]1O[C@@H](n2cnc3c(N)ncnc32)[C@H](O)[C@@H]1O)Nc1cccc(-c2cccc(F)c2)c1 |
| > 90% | > 95% | > 90% | > 50% |  | N=C(NCCCSC[C@H]1O[C@@H](n2cnc3c(N)ncnc32)[C@H](O)[C@@H]1O)Nc1cccc(-c2ccc3c(c2)OCCO3)c1 |
| 27% | < 30% |  | < 50% | 3% | Nc1ncnc2c1ncn2[C@@H]1O[C@H](CSCCCNC(=O)NCCCc2ccccc2)[C@@H](O)[C@H]1O |
| > 90% | > 95% | > 90% | > 50% |  | N=C(NCCSC[C@H]1O[C@@H](n2cnc3c(N)ncnc32)[C@H](O)[C@@H]1O)Nc1cccc(-c2cccc(F)c2)c1 |
| > 90% | > 95% | > 90% | > 50% |  | N=C(NCCCSC[C@H]1O[C@@H](n2cnc3c(N)ncnc32)[C@H](O)[C@@H]1O)Nc1cccc(-c2ccc(C(F)(F)F)cc2)c1 |
| 27% | < 30% |  | < 50% | 3% | Nc1ncnc2c1ncn2[C@@H]1O[C@H](CSCCNC(=O)Nc2cccc3ccccc23)[C@@H](O)[C@H]1O |
| > 90% | < 30% |  | < 50% | > 50% | Nc1ncnc2c1ncn2[C@@H]1O[C@H](CSCCNC(=O)NCc2ccc(F)cc2)[C@@H](O)[C@H]1O |
| 27% | < 30% |  | < 50% | > 50% | Nc1ncnc2c1ncn2[C@@H]1O[C@H](CSCCNC(=O)Nc2ccc(F)cc2)[C@@H](O)[C@H]1O |
| 27% | < 30% |  | < 50% | 3% | Nc1ncnc2c1ncn2[C@@H]1O[C@H](CSCCCNC(=O)NCCc2ccccc2)[C@@H](O)[C@H]1O |
| 27% | < 30% |  | < 50% | > 50% | Nc1ncnc2c1ncn2[C@@H]1O[C@H](CSCCNC(=O)Nc2ccccc2)[C@@H](O)[C@H]1O |
